Experiments:
opsin = target: T1, opsin (Bos taurus, UniProt P02699); test: Photoisomerization (bleaching) of 11-cis-7-ring-retinals in solution and bound to opsin
T1 construct: Preparation of rod outer segment, opsin, rhodopsin regeneration with retinals; from tissue; host or cells: rod outer segments
Experimental: Preparation of rod outer segment, opsin, rhodopsin regeneration with retinals, and purification of rhodopsin on a concanavalin A-Sepharose 4B column were conducted as described previously (Jang et al., J. Biol. Chem. 276:26148-53 (2001)).

rhodopsin = target: T2, rhodopsin (Bos taurus, UniProt P02699); test: FTIR spectroscopy of regenerated rhodopsin; assay type: biochemical; settings: for FTIR difference spectra of regenerated rhodopsin upon photoactivation: 7-ring analogs
T2 construct: Opsin membranes (24 μM) (Sachs et al., J. Biol. Chem. 275:6189-94 (2000)); from tissue; rod outer segment membranes by inference
Experimental: Opsin membranes (24 μM) (Sachs et al., J. Biol. Chem. 275:6189-94 (2000)) were incubated overnight with 240 μM 11-cis-retinal or with the mixture of either 11-cis-6-ring- or 11-cis-7-ring-retinal isomers in the BTP buffer (20 mM BTP, pH 7.5, containing 1 mM MgCl2 and 130 mM NaCl). Suspensions of membranes were centrifuged for 25 minutes at 100,000×g and resuspended in the BTP buffer to yield 2.2 mM rhodopsin (from absorption at 500 nm). […] For H2O/D2O exchange, the pellet was resuspended three times in deuterated buffer. The buffer solution was removed, and the pellet transferred to a 30-mm-diameter temperature-controlled transmission cell with two BaF2 windows and a 3 μm polytetrafluoroethylen gasket. The spectra were recorded using a Bruker ifs 66-V spectrometer (Bard et al., FEBS Lett. 473:259-64 (2000)). For all samples, Meta II minus rhodopsin difference spectra were produced.

Rpe65−/− mice [1] = tested on: Rpe65−/− mice
Experimental: Mice were anesthetized by intraperitoneal injection with 15 μl/g body weight of 6 mg/ml ketamine and 0.44 mg/ml xylazine diluted with 10 mM phosphate buffer, pH 7.2, containing 100 mM NaCl. The pupils were dilated with 1% tropicamide. A contact lens electrode was placed on the eye with a drop of methylcellulose, and a ground electrode (a reference electrode) was placed in the ear. ERGs were recorded with the universal testing and electrophysiologic system 3000 (UTAS E-3000) (LKC Technologies, Inc.). The mice were placed in a Ganzfield chamber, and responses to flash stimuli were obtained from both eyes simultaneously. […] Two to four recordings were made with >10-second intervals. Typically, 4-8 animals were used for recording of each point in all conditions. All ERG measurements were done within 10-40 minutes after anesthesia.

Rpe65−/− mice [2] = test: In vivo regeneration of rhodopsin with 6- and 7-ring isomers; design: species or system mouse
From the text: All animal studies employed procedures approved by the University of Washington Animal Care Committee and conformed to recommendations of the American Veterinary Medical Association Panel on Euthanasia. All animals were maintained in complete darkness, and all manipulations were done under dim red light employing a Kodak No. 1 Safelight filter (transmittance >560 nm). Typically, 2-3-month-old mice were used in all studies. RPE65-deficient mice were obtained from M. Redmond (National Eye Institute, National Institutes of Health. Bethesda, Md.) and genotyped as described previously (Redmond et al., Nat. Genet. 20:344-51 (1998; Redmond et al. Methods Enzymol. 316:705-24 (2000)).
All procedures were performed under dim red light as described previously (Van Hooser et al., Proc. Natl. Acad. Sci. USA 97:862328 (2000); Jang. et al., J. Biol. Chem. 276:3245665 (2001); Palczewski et al., Biochemistry 38:12012-19 (1999)).

Gt = test: Kinetic light scattering (Gt activation); assay type: biochemical
Experimental: Light-scattering changes were measured as previously described (Heck et al., Methods Enzymol. 315:32947 (2000)). Measurements were performed in 10-mm path cuvettes with 300-μl volumes in isotonic buffer (20 mM BTP, 130 mM NaCl, and 1 mM MgCl2, pH 6.4, as indicated in the legend to FIG. 6) at 22° C. with a 5-ms dwell time of the A/D converter (Nicolet 400, Madison, Wis.). Samples contained membrane suspension (3 μM rhodopsin) reconstituted with purified Gt (0.8 μM) and 1 mM GTP. Reactions were triggered by flash photolysis of rhodopsin with a green (500±20 nm) flash attenuated by appropriate neutral density filters. The flash intensity was quantified photometrically by the amount of rhodopsin bleached and expressed in terms of the mole fraction of photoexcited rhodopsin (Rh*/Rh).

rhodopsin kinase = test: Phosphorylation of regenerated rhodopsin by rhodopsin kinase; assay type: biochemical; settings: in vitro
Experimental: Regenerated rhodopsin (2 mg/ml) was mixed in 100 μl of 100 mM sodium phosphate buffer, pH 7.2, containing 5 mM MgCl2, 0.5 mM [^32P]ATP (approximately 35,000 to approximately 50,000 cpm/nmol) and purified rhodopsin kinase (approximately 5 μg of protein), and the assay was carried out as described previously (Palczewski et al., J. Biol. Chem. 266:1294955 (1991)). Studies were performed in triplicate.

T2 sequence (P02699 whole entry): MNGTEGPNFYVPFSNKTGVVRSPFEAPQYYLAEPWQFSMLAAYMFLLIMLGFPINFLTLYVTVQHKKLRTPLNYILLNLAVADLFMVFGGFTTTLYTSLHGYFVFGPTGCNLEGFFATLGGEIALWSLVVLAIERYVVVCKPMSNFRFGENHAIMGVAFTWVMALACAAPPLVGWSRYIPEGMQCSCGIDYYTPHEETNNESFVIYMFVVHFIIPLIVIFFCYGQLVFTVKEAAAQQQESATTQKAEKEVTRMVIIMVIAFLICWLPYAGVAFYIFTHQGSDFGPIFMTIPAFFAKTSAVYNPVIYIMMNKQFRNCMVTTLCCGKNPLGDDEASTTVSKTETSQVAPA
T1 sequence (P02699 whole entry): as above

**Q.** Which “abundance in isomer mixture after bleaching” value (opsin; bleaching 7-ring-retinoids in solution) does the source give for “9,11,13-tri-cis-7-ring retinal [isomer 1]” here?
**A.** least abundant isomer

**Q.** And the “FTIR difference spectra of regenerated rhodopsin upon photoactivation” value (“FTIR difference spectra” for short) (rhodopsin)?
**A.** only minor changes in the difference spectra

**Q.** With 9,11-di-cis-7-ring retinal [isomer 4] as the substance, how does the “FTIR difference spectra” value (rhodopsin) read?
**A.** only minor changes in the difference spectra

**Q.** Which results are given for 11,13-di-cis-7-ring retinal [isomer 2]?
**A.** isomerization when bound to opsin (opsin): converts readily to isomer 3 even in the dark; FTIR difference spectra of regenerated rhodopsin upon photoactivation (rhodopsin): inactive

**Q.** How did the “activity of rhodopsin regenerated in vivo” value (Rpe65−/− mice [1]; Rpe65−/− mice) turn out when 11-cis-6-ring-retinal was run?
**A.** active at higher bleaches

**Q.** What about the “ERG activity (a- and b-wave) compared with Me2SO” value (Rpe65−/− mice [1]; mouse, in vivo) of the same substance?
**A.** clearly elevated

**Q.** What about the “isomeric products in visual pigment after injection of isomer mixture” value (Rpe65−/− mice [2]) of the same substance?
**A.** three isomers

**Q.** And the “sensitivity of activity to hydroxylamine” value (Gt)?
**A.** sensitive to hydroxylamine

**Q.** And the “intensity of activating light flash needed for Gt activation rates comparable to wild-type rhodopsin” value (Gt; membranes with regenerated rhodopsin)?
**A.** 1350 fold

**Q.** What about the “pH dependence of Gt activation” value (Gt; pH 6.4 vs 7.4) of the same substance?
**A.** enhanced at acidic pH

**Q.** “11-cis-6-ring-rhodopsin: rhodopsin regenerated with 11-cis-6-ring-retinal (2-carbon bridge)” was tested. Which “pKa of the light-induced active species” value (rhodopsin) did it give?
**A.** 5.4

**Q.** And the “FTIR: photoproduct after bleaching” value (rhodopsin; pH 4.5)?
**A.** Meta II-like product that is able to bind Gt-(340-350) derived peptide

**Q.** And the “FTIR: activity after bleaching” value (rhodopsin; pH 7.5)?
**A.** only residual activity

**Q.** What about the “activity relative to the 7-locked pigment” value (Gt) of the same substance?
**A.** markedly higher

**Q.** How did the “isomerization when bound to opsin” value (opsin) turn out when 11-cis-7-ring retinal [isomer 3] was run?
**A.** most stable to isomerization

**Q.** What about the “FTIR difference spectra” value (rhodopsin) of the same substance?
**A.** inactive

**Q.** What about the “regeneration of opsin in vivo” value (Rpe65−/− mice [2]) of the same substance?
**A.** readily and preferentially regenerated

**Q.** What about the “activity relative to wild-type” value (Gt; regenerated rhodopsin) of the same substance?
**A.** 0.10%

**Q.** Which “activity in phosphorylation assay with purified rhodopsin kinase” value (rhodopsin kinase) does the source give for “11-cis-7-ring-rhodopsin: rhodopsin regenerated with 11-cis-7-ring-retinal” here?
**A.** inactive

**Q.** “Meta II: catalytically active rhodopsin intermediate containing all-trans-retinal bound to Lys296 of opsin [reference compound]” was tested. Which “pKa of the light-induced active species” value (rhodopsin) did it give?
**A.** 6.7

Source: patent US8962691B2, “Retinoid replacements and opsin agonists and methods for the use thereof” (University of Washington, priority 2003, dated 2015)
